Measured values published in patent publication US9738669B2, “Pentaaza macrocyclic ring complexes possessing oral bioavailability” (Galera Labs, LLC, priority 2015, dated 2017).

Assay: Intraduodenal (id) bioavailability screen in minipigs, plasma level of parent Mn complex by HPLC/MS/MS
Assay type: in vivo, Gottingen minipig
Conditions: for Mini-Pig BioA: id 10 mg/kg, vs 1 mg/kg iv parent chloro complex, AUC0→24 h
Protocol: Compounds were screened for oral bioavailability by injecting the formulated prodrugs directly into the duodenum (intraduodenal or id administration) of the minipig test subjects, thus bypassing the acidic environment of the stomach and thereby eliminating potentially misleading oral bioavailability results that could arise from alteration of the test article drug in the acid environment of the stomach.
The studies were conducted at Xenometrics LLC (Stillwell, Kans.) and the id bioavailability was determined using various axial ligand derivative complexes of GC4419, GC4444, GC4403 and GC4401.
Male Gottingen minipigs (4-5 mo old, 9-12 kg weight) were purchased from Marshall BioResources and housed at Xenometrics. […] The distal end was exteriorized with a reusable accessible hub (see surgical details below). During a recovery period of at least 2 weeks the minipigs were handled daily to acclimate them to the test procedures, i.e., id dosing and blood collections. For each experiment, each minipig received a test article drug dissolved or suspended in an excipient vehicle. […] All dosing experiments were conducted in fasted animals. Food was withdrawn from the minipigs 16 hours before dosing. The minipigs had ad libitum access to water. Dosed minipigs were allowed access to food 6 hour after dosing. The test article was administered at a dose of 10 mg/kg parent drug in 0.1 mL/kg vehicle (e.g., 1.5 mL in 15 kg minipig) as a bolus injection (˜1 minute) via the id cannula. The actual amount of total test article drug administered varied with the formula weight of the prodrug. An equal volume of excipient vehicle was used to flush the cannula after the test article was administered. Approximately 6 hours later, corn oil was used to flush the cannula. After approximately 24 hours post-dose, the catheter was flushed with sterile saline solution and capped. At the following time-points 0.25, 0.5, 1, 2, 4, 8, 24 and 48 hour post-injection, 2 mL blood samples were collected by cranial vena cava puncture (4 mL Sodium heparin Vacutainer, 20 g 1.5″ needle) after the skin surface was wiped with ethanol. The minipig was placed in a sling in a recumbent position without anesthesia for the collection of blood samples. The minipigs were never used more than once per 7 days for experimentation. The blood samples were kept on ice until processed for plasma. Blood samples were centrifuged at 1200×g for ten minutes at 4° C. and plasma samples were transferred to 96 well plate tubes, capped and stored at −20° C. until shipment on dry ice to the analytical laboratory used for measuring the concentration of drug in the plasma. The concentration of the parent manganese pentaaza macrocylic ring complex (independent of the composition of the axial ligands) was measured in plasma using a validated HPLC/MS/MS method that is linear between 50 ng/mL and 20,000 ng/mL.
The oils used for preparing the dosing solutions were used as supplied from commercial sources. The Capmul MCM (NF) is a mixture of mono/diglycerides of caprylic/capric acids and was supplied by ABITEC Corporation, Janesville, Wis. The Miglyol 812 N is a mixture of caprylic/capric acid triglycerides and was supplied by Cremer Oleo Division, Eatontown, N.J. Labrafil M 2125 CS (NF) is chemically defined to be linoleoyl polyoxyl-6 glycerides NF and was supplied by Gattefosse, SAINT-PRIEST Cedex, France. Peceol is chemically defined to be the monoglyceride, glyceryl monooleate NF, and was supplied by Gattefosse, SAINT-PRIEST Cedex, France. Maisine 35-1 is chemically defined to be the monoglyceride glyceryl monolinoleate (NF) and was supplied by Gattefosse, SAINT-PRIEST Cedex, France. Labrasol (NF) is chemically defined to be caprylocaproyl polyoxyl-8 glycerides NF and was supplied by Gattefosse, SAINT-PRIEST Cedex, France. Labrafil M 1944 CS is chemically defined to be oleoyl polyoxyl-6 glycerides (NF), and is available from Gattefosse, SAINT-PRIEST Cedex, France. […]

[1] = base oil Capmul MCM, 10% by weight
[2] = base oil Maisine 35-1, 10% by weight
[3] = base oil Labrafil M2125 CS, 10% by weight

| Substance | Mini-Pig BioA [1] | Mini-Pig BioA [2] | Mini-Pig BioA (base oil Peceol, 10% by weight) | Mini-Pig BioA [3] | further results |
| --- | --- | --- | --- | --- | --- |
| Manganese(II)bis-Benzoato[(4aS,13aS,17aS,21aS)-1,2,3,4,4a,5,6,12,13,13a,14,15,16,17,17a,18,19,20,21,21a-Eicosahydro-11,7-nitrilo-7H-dibenzo[b,h][1,4,7,10]tetraazacycloheptadecine-κN5,κN13,κN18,κN21,κN22]- [GC4712] | 24% | 18% | 29% | – | – |
| Manganese(II)bis-L-Lactato[(4aS,13aS,17aS,21aS)-1,2,3,4,4a,5,6,12,13,13a,14,15,16,17,17a,18,19,20,21,21a-Eicosahydro-11,7-nitrilo-7H-dibenzo[b,h][1,4,7,10]tetraazacycloheptadecine-κN5,κN13,κN18,κN21,κN22]- [GC4714] | 36% | – | – | – | – |
| Manganese(II)bis-L-phenylalaninato[(4aS,13aS,17aS,21aS)-1,2,3,4,4a,5,6,12,13,13a,14,15,16,17,17a,18,19,20,21,21a-Eicosahydro-11,7-nitrilo-7H-dibenzo[b,h][1,4,7,10]tetraazacyclo-heptadecine-κN5,κN13,κN18,κN21,κN22]- [GC4704] | 10% | – | – | – | – |
| Manganese(II)bis-L-phenylglycinato[(4aS,13aS,17aS,21aS)-1,2,3,4,4a,5,6,12,13,13a, 14,15,16,17,17a,18,19,20,21,21a-Eicosahydro-11,7-nitrilo-7H-dibenzo[b,h][1,4,7,10]tetraazacyclo-heptadecine-κN5,κN13,κN18,κN21,κN22]- [GC4702] | 43% | – | 29% | 25% | Mini-Pig BioA (base oil Miglyol 812N, 10% by weight): 42%; oral bioavailability / absorption, comparison in words (minipig id dosing, oil formulations, comparison between axial ligands): much better absorbed |
| Manganese(II)bis-L-valinato[(4aS,13aS,17aS,21aS)-1,2,3,4,4a,5,6,12,13,13a,14,15,16,17,17a,18,19,20,21,21a-Eicosahydro-11,7-nitrilo-7H-dibenzo[b,h][1,4,7,10]tetraazacyclo-heptadecine-κN5,κN13,κN18,κN21,κN22]- [GC4746] | 13% | – | – | – | – |
| Manganese(II)bis-acetato[(4aS,13aS,17aS,21aS)-1,2,3,4,4a,5,6,12,13,13a,14,15,16,17,17a,18,19,20,21,21a-Eicosahydro-11,7-nitrilo-7H-dibenzo[b,h][1,4,7,10]tetraazacycloheptadecine-κN5,κN13,κN18,κN21,κN22]- [GC4701] | 15% | 8% | 11% | 16% | – |
| Manganese(II)bis-cyclohexanebutyrato[(4aS,13aS,17aS,21aS)-1,2,3,4,4a,5,6,12,13,13a, 14,15,16,17,17a,18,19,20,21,21a-Eicosahydro-11,7-nitrilo-7H-dibenzo[b,h][1,4,7,10]tetraazacyclo-heptadecine-κN5,κN13,κN18,κN21,κN22]- [GC4707] | 9% | – | – | – | – |
| Manganese(II)bis-dodecanoato[(4aS,13aS,17aS,21aS)-1,2,3,4,4a,5,6,12,13,13a,14,15,16,17,17a,18,19,20,21,21a-Eicosahydro-11,7-nitrilo-7H-dibenzo[b,h][1,4,7,10]tetraazacycloheptadecine-κN5,κN13,κN18,κN21,κN22]- [GC4708] | 12% | – | – | – | – |
| Manganese(II)bis-n-Butyrato[(4aS,13aS,17aS,21aS)-1,2,3,4,4a,5,6,12,13,13a,14,15,16,17,17a,18,19,20,21,21a-Eicosahydro-11,7-nitrilo-7H-dibenzo[b,h][1,4,7,10]tetraazacycloheptadecine-κN5,κN13,κN18,κN21,κN22]- [GC4713] | – | – | 18% | 21% | – |
| Manganese(II)bis-octanoato[(4aS,13aS,17aS,21aS)-1,2,3,4,4a,5,6,12,13,13a,14,15,16,17,17a,18,19,20,21,21a-Eicosahydro-11,7-nitrilo-7H-dibenzo[b,h][1,4,7,10]tetraazacycloheptadecine-κN5,κN13,κN18,κN21,κN22]- [GC4710] | 13% | 8% | – | 21% | – |
| Manganese(II)bis-phenylacetato[(4aS,13aS,17aS,21aS)-1,2,3,4,4a,5,6,12,13,13a,14,15,16,17,17a,18,19,20,21,21a-Eicosahydro-11,7-nitrilo-7H-dibenzo[b,h][1,4,7,10]tetraazacyclo-heptadecine-κN5,κN13,κN18,κN21,κN22]- [GC4718] | 32% | 28% | – | – | – |
| Manganese(II)bis-phenylglyoxaloto[(4aS,13aS,17aS,21aS)-1,2,3,4,4a,5,6,12,13,13a,14,15,16,17,17a,18,19,20,21,21a-Eicosahydro-11,7-nitrilo-7H-dibenzo[b,h][1,4,7,10]tetraazacyclohepta-decine-κN5,κN13,κN18,κN21,κN22]- [GC4719] | 25% | 31% | 28% | – | – |
| Manganese(II)bis-pivaloato[(4aS,13aS,17aS,21aS)-1,2,3,4,4a,5,6,12,13,13a,14,15,16,17,17a,18,19,20,21,21a-Eicosahydro-11,7-nitrilo-7H-dibenzo[b,h][1,4,7,10]tetraazacycloheptadecine-κN5,κN13,κN18,κN21,κN22]- [GC4709] | 17% | – | – | 22% | – |
| Manganese(II)bis-propionato[6R-Methyl(4aR,13aR,17aR,21aR)-1,2,3,4,4a,5,6,12,13,13a,14,15,16,17,17a,18,19,20,21,21a-Eicosahydro-11,7-nitrilo-7H-dibenzo[b,h][1,4,7,10]tetraazacycloheptadecine-κN5,κN13,κN18,κN21,κN22]- [GC4747] | – | – | – | 20% | – |
| Manganese(II)bis-propionato[(4aR,13aR,17aR,21aR)-1,2,3,4,4a,5,6,12,13,13a,14,15,16,17,17a,18,19,20,21,21a-Eicosahydro-11,7-nitrilo-7H-dibenzo[b,h][1,4,7,10]tetraazacycloheptadecine-κN5,κN13,κN18,κN21,κN22]- [GC4748] | – | – | – | 22% | – |
| Manganese(II)bis-propionato[(4aS,13aS,17aS,21aS)-1,2,3,4,4a,5,6,12,13,13a,14,15,16,17,17a,18,19,20,21,21a-Eicosahydro-11,7-nitrilo-7H-dibenzo[b,h][1,4,7,10]tetraaza-cycloheptadecine-κN5,κN13,κN18,κN21,κN22]- [GC4711] | 27% | 29% | 29% | 44% | Mini-Pig BioA (base oil Labrafil M1944 CS, 10% by weight): 23% |
| Manganese(II)bis-rac-Mandelato[(4aS,13aS,17aS,21aS)-1,2,3,4,4a,5,6,12,13,13a,14,15,16,17,17a,18,19,20,21,21a-Eicosahydro-11,7-nitrilo-7H-dibenzo[b,h][1,4,7,10]tetraazacycloheptadecine-κN5,κN13,κN18,κN21,κN22]- [GC4706] | 28% | – | – | – | – |
| Manganese(II)bis-racemic-2-phenylpropionato[(4aS,13aS,17aS,21aS)-1,2,3,4,4a,5,6,12,13,13a,14,15,16,17,17a,18,19,20,21,21a-Eicosahydro-11,7-nitrilo-7H-dibenzo[b,h][1,4,7,10]tetraazacycloheptadecine-κN5,κN13,κN18,κN21,κN22]- [GC4705] | 23% | – | 24% | – | – |
